{
  "source": "patent US8802597B2",
  "about": "“Herbicidal pyrimidines” (E I du Pont de Nemours and Company, priority 2003, dated 2014)",
  "format_in_all_cases": "in vivo",
  "key": {"[1]": {"tested_on": "Surinam grass (Brachiaria decumbens)", "test": "Test B pre/postemergence", "source_text": "(§1) Seeds selected from barnyardgrass (Echinochloa crus-galli), Surinam grass (Brachiaria decumbens), cocklebur (Xanthium strumarium), corn (Zea mays), crabgrass (Digitaria sanguinalis), giant foxtail (Setaria faberii), lambsquarters (Chenopodium album), morningglory (Ipomoea coccinea), pigweed (Amaranthus retroflexus), velvetleaf (Abutilon theophrasti), and wheat (Triticum aestivum) were planted and treated preemergence with test chemicals formulated in a non-phytotoxic solvent mixture which included a surfactant.\n(§2) At the same time, plants selected from these crop and weed species and also blackgrass (Alopecurus myosuroides) and wild oat (Avena fatua) were treated with postemergence applications of test chemicals formulated in the same manner. Plants ranged in height from 2 to 18 cm (1- to 4-leaf stage) for postemergence treatments. Plant species in the flooded paddy test consisted of rice (Oryza sativa), umbrella sedge (Cyperus difformis), duck salad (Heteranthera limosa) and barnyardgrass (Echinochloa crus-galli) grown to the 2-leaf stage for testing. Treated plants and controls were maintained in a greenhouse for 13 to 15 days, after which time all species were compared to controls and visually evaluated. Plant response ratings, summarized in Table B, are based on a scale of 0 to 100 where 0 is no effect and 100 is complete control. A dash (-) response means no test result."}, "[2]": {"tested_on": "barnyardgrass (Echinochloa crus-galli)", "test": "Test B pre/postemergence", "source_text": "as §1, §2"}, "[3]": {"tested_on": "cocklebur (Xanthium strumarium)", "test": "Test B pre/postemergence", "source_text": "as §1, §2"}, "corn (Zea mays)": {"tested_on": "corn (Zea mays)", "test": "Test B pre/postemergence", "source_text": "as §1, §2"}, "[4]": {"tested_on": "crabgrass (Digitaria sanguinalis)", "test": "Test B pre/postemergence", "source_text": "as §1, §2"}, "[5]": {"tested_on": "giant foxtail (Setaria faberii)", "test": "Test B pre/postemergence", "source_text": "as §1, §2"}, "[6]": {"tested_on": "lambsquarters (Chenopodium album)", "test": "Test B pre/postemergence", "conditions": "Postemergence", "source_text": "as §1, §2"}, "[7]": {"tested_on": "morningglory (Ipomoea coccinea)", "test": "Test B pre/postemergence", "source_text": "as §1, §2"}, "[8]": {"tested_on": "pigweed (Amaranthus retroflexus)", "test": "Test B pre/postemergence", "source_text": "as §1, §2"}, "[9]": {"tested_on": "velvetleaf (Abutilon theophrasti)", "test": "Test B pre/postemergence", "source_text": "as §1, §2"}, "[10]": {"tested_on": "wheat (Triticum aestivum)", "test": "Test B pre/postemergence", "source_text": "as §1, §2"}, "[11]": {"tested_on": "blackgrass (Alopecurus myosuroides)", "test": "Test B postemergence", "source_text": "as §1, §2"}, "wild oat (Avena fatua)": {"tested_on": "wild oat (Avena fatua)", "test": "Test B postemergence", "source_text": "as §1, §2"}, "[12]": {"conditions": "Postemergence, 125 g ai/ha, scale 0 to 100 (0 no effect, 100 complete control)"}, "[13]": {"conditions": "Postemergence, 500 g ai/ha, scale 0 to 100"}, "[14]": {"conditions": "Preemergence, 125 g ai/ha, scale 0 to 100 (0 no effect, 100 complete control)"}, "[15]": {"conditions": "Preemergence, 500 g ai/ha, scale 0 to 100 (0 no effect, 100 complete control)"}, "[16]": {"conditions": "125 g ai/ha, scale 0 to 100 (0 no effect, 100 complete control)"}},
  "data": [
    {"compound": "CCOC(=O)c1nc(C2CC2)nc(NNC(C)=O)c1Br", "note": "[Compound 126]", "values": [
      {"measurement": "Surinam Grass plant response rating", "setting": "[1]; [12]", "result": 0},
      {"measurement": "Plant response rating, Surinam Grass", "setting": "[1]; [13]", "result": 70},
      {"measurement": "Plant response rating, Surinam Grass", "setting": "[1]; [14]", "result": 0},
      {"measurement": "Plant response rating, Surinam Grass", "setting": "[1]; [15]", "result": 20},
      {"measurement": "Barnyardgrass plant response rating", "setting": "[2]; [12]", "result": 0},
      {"measurement": "Plant response rating, Barnyardgrass", "setting": "[2]; [13]", "result": 0},
      {"measurement": "Plant response rating, Barnyardgrass", "setting": "[2]; [14]", "result": 0},
      {"measurement": "Plant response rating, Barnyardgrass", "setting": "[2]; [15]", "result": 0},
      {"measurement": "Cocklebur plant response rating", "setting": "[3]; [12]", "result": 0},
      {"measurement": "Plant response rating, Cocklebur", "setting": "[3]; [13]", "result": 0},
      {"measurement": "Plant response rating, Cocklebur", "setting": "[3]; [14]", "result": 0},
      {"measurement": "Plant response rating, Cocklebur", "setting": "[3]; [15]", "result": 90},
      {"measurement": "Corn plant response rating", "setting": "corn (Zea mays); [12]", "result": 0},
      {"measurement": "Plant response rating, Corn", "setting": "corn (Zea mays); [13]", "result": 10},
      {"measurement": "Plant response rating, Corn", "setting": "corn (Zea mays); [14]", "result": 0},
      {"measurement": "Plant response rating, Corn", "setting": "corn (Zea mays); [15]", "result": 0},
      {"measurement": "Crabgrass plant response rating", "setting": "[4]; [12]", "result": 0},
      {"measurement": "Plant response rating, Crabgrass", "setting": "[4]; [13]", "result": 20},
      {"measurement": "Plant response rating, Crabgrass", "setting": "[4]; [14]", "result": 80},
      {"measurement": "Plant response rating, Crabgrass", "setting": "[4]; [15]", "result": 100},
      {"measurement": "Foxtail, Giant plant response rating", "setting": "[5]; [12]", "result": 0},
      {"measurement": "Plant response rating, Foxtail, Giant", "setting": "[5]; [13]", "result": 0},
      {"measurement": "Plant response rating, Foxtail, Giant", "setting": "[5]; [14]", "result": 0},
      {"measurement": "Plant response rating, Foxtail, Giant", "setting": "[5]; [15]", "result": 0},
      {"measurement": "Lambsquarters plant response rating", "setting": "[6]; [16]", "result": 30},
      {"measurement": "Plant response rating, Lambsquarters", "setting": "[6]; 500 g ai/ha, scale 0 to 100", "result": 40},
      {"measurement": "Morningglory plant response rating", "setting": "[7]; [12]", "result": 30},
      {"measurement": "Plant response rating, Morningglory", "setting": "[7]; [13]", "result": 60},
      {"measurement": "Plant response rating, Morningglory", "setting": "[7]; [14]", "result": 0},
      {"measurement": "Plant response rating, Morningglory", "setting": "[7]; [15]", "result": 70},
      {"measurement": "Pigweed plant response rating", "setting": "[8]; [12]", "result": 0},
      {"measurement": "Plant response rating, Pigweed", "setting": "[8]; [13]", "result": 30},
      {"measurement": "Plant response rating, Pigweed", "setting": "[8]; [14]", "result": 20},
      {"measurement": "Plant response rating, Pigweed", "setting": "[8]; [15]", "result": 80},
      {"measurement": "Velvetleaf plant response rating", "setting": "[9]; [12]", "result": 10},
      {"measurement": "Plant response rating, Velvetleaf", "setting": "[9]; [13]", "result": 20},
      {"measurement": "Plant response rating, Velvetleaf", "setting": "[9]; [14]", "result": 10},
      {"measurement": "Plant response rating, Velvetleaf", "setting": "[9]; [15]", "result": 20},
      {"measurement": "Wheat plant response rating", "setting": "[10]; [12]", "result": 0},
      {"measurement": "Plant response rating, Wheat", "setting": "[10]; [13]", "result": 0},
      {"measurement": "Plant response rating, Wheat", "setting": "[10]; [14]", "result": 0},
      {"measurement": "Plant response rating, Wheat", "setting": "[10]; [15]", "result": 0},
      {"measurement": "Blackgrass plant response rating", "setting": "[11]; [16]", "result": 0},
      {"measurement": "Plant response rating, Blackgrass", "setting": "[11]; 500 g ai/ha, scale 0 to 100", "result": 0},
      {"measurement": "Oat, Wild plant response rating", "setting": "wild oat (Avena fatua); [16]", "result": 0},
      {"measurement": "Plant response rating, Oat, Wild", "setting": "wild oat (Avena fatua); 500 g ai/ha, scale 0 to 100", "result": 20}
    ]}
  ]
}
